Experimental data taken from ChEMBL document CHEMBL4732042, “Studies on the affinity of 6-[(n-(cyclo)aminoalkyl)oxy]-4H-chromen-4-ones for sigma 1/2 receptors” (RSC Med Chem, 2021).
pIC50, pKi: −log10 of the molar value.

biological target: T1, Sigma intracellular receptor 2 (Rattus norvegicus, UniProt Q5U3Y7); assay: Displacement of (+)-[3H]DTG from sigma 2 receptor in SPRD rat liver membrane incubated for 2 hrs by liquid scintillation counting method; format: cell membranes; settings: not given
T1 sequence (Q5U3Y7 whole entry): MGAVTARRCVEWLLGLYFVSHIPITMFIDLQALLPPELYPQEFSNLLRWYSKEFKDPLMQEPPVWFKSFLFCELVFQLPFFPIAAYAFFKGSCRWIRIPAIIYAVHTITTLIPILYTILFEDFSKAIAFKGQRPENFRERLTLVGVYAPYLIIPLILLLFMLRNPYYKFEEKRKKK

| Structure (SMILES) | pKi |
| --- | --- |
| O=c1ccoc2ccc(OCCN3CCOCC3)cc12 | < 5.00 |
| O=c1ccoc2ccc(OCCN3CCCCCC3)cc12 | 5.79 |
| CCN(CC)CCCCCOc1ccc2occc(=O)c2c1 | 5.60 |
| CCN(CC)CCOc1ccc2occc(=O)c2c1 | 4.52 |
| CCN(CC)CCCOc1ccc2occc(=O)c2c1 | 5.08 |
| O=c1ccoc2ccc(OCCCCN3CCCCC3)cc12 | 5.71 |
| O=c1ccoc2ccc(OCCCCCN3CCOCC3)cc12 | 5.58 |
| O=c1ccoc2ccc(OCCN3CCCCC3)cc12 | 5.04 |
| CN1CCN(CCOc2ccc3occc(=O)c3c2)CC1 | 4.85 |
| O=c1ccoc2ccc(OCCCN3CCCCC3)cc12 | 5.54 |

Results, then the compound that gave them:

| pKi | Structure (SMILES) |
| --- | --- |
| 5.84 | O=c1ccoc2ccc(OCCCCCN3CCCC3)cc12 |
| 5.39 | CN1CCN(CCCCCOc2ccc3occc(=O)c3c2)CC1 |
| 6.23 | C[C@@H]1CCCN1CCCCCOc1ccc2occc(=O)c2c1 |
| 4.90 | O=c1ccoc2ccc(OCCN3CCCC3)cc12 |
| 4.77 | CN1CCN(CCCOc2ccc3occc(=O)c3c2)CC1 |
| 5.96 | C[C@@H]1CCCN1CCCCOc1ccc2occc(=O)c2c1 |
| 6.12 | O=c1ccoc2ccc(OCCCN3CCCCCC3)cc12 |
| 5.51 | O=c1ccoc2ccc(OCCCCN3CCCC3)cc12 |
| 4.65 | O=c1ccoc2ccc(OCCCN3CCOCC3)cc12 |
| 4.84 | O=c1ccoc2ccc(OCCCCN3CCOCC3)cc12 |
| 4.62 | O=c1ccoc2ccc(OCCCN3CCCC3)cc12 |
| 6.31 | O=c1ccoc2ccc(OCCCCCN3CCCCC3)cc12 |

biological target: Cholinesterase (Homo sapiens, UniProt P06276); assay: Inhibition of human BuChE; settings: not given
Sequence (P06276 whole entry): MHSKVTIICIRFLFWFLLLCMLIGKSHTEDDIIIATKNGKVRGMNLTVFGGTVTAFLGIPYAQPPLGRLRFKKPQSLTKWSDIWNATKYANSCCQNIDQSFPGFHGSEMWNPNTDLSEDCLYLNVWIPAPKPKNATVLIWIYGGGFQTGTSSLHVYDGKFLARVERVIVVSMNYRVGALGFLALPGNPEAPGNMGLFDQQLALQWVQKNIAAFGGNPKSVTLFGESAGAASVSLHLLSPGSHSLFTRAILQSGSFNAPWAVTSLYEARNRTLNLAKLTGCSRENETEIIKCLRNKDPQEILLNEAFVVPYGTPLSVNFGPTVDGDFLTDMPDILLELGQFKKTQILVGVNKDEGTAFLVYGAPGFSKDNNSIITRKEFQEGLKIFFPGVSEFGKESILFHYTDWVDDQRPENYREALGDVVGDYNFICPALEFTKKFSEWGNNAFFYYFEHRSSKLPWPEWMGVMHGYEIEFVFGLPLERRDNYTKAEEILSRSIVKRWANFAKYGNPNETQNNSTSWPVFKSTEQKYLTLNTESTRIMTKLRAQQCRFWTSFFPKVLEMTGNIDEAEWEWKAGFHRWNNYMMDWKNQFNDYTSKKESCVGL

| Structure (SMILES) | pIC50 |
| --- | --- |
| O=c1ccoc2ccc(OCCCCN3CCCCC3)cc12 | 4.06 |
| O=c1ccoc2ccc(OCCCCCN3CCOCC3)cc12 | < 4.00 |

biological target: T2, Amine oxidase [flavin-containing] B (Homo sapiens, UniProt P27338); assay: Inhibition of human MAO-B; settings: not given
T2 sequence (P27338 whole entry): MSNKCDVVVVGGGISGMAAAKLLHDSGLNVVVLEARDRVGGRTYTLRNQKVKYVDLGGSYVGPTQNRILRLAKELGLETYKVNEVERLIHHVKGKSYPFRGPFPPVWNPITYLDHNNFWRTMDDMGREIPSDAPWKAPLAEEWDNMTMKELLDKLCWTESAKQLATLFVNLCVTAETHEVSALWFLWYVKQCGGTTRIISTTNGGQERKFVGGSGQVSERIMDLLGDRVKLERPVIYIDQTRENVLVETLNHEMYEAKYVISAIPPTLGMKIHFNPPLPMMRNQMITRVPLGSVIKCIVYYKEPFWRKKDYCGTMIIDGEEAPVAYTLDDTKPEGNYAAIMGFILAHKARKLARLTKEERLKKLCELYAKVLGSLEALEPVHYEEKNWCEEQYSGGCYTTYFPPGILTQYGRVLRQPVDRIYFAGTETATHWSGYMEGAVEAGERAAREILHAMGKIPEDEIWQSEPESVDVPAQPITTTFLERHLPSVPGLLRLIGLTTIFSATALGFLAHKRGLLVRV

| Structure (SMILES) | IC50 |
| --- | --- |
| O=c1ccoc2ccc(OCCCCCN3CCCC3)cc12 | Not Active |
| O=c1ccoc2ccc(OCCCN3CCCCC3)cc12 | Not Active |

same assay, conditions: read-out: IC50

| Structure (SMILES) | pIC50 |
| --- | --- |
| O=c1ccoc2ccc(OCCCCN3CCCCC3)cc12 | 5.14 |
| O=c1ccoc2ccc(OCCCN3CCOCC3)cc12 | 5.93 |

biological target: Sigma non-opioid intracellular receptor 1 (Homo sapiens, UniProt Q99720); assay: Displacement of [3H]pentazocine from human sigma 1 receptor expressed in HEK293 cell membrane incubated for 2 hrs by liquid scintillation counting method; format: cell membranes; settings: not given
Sequence (Q99720 whole entry): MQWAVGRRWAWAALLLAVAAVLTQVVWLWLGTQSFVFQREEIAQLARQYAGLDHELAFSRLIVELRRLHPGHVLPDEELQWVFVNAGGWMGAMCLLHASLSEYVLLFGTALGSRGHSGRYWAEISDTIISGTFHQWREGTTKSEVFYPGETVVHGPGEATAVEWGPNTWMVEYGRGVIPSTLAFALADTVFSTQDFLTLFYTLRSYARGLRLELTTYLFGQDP

| Structure (SMILES) | pKi |
| --- | --- |
| O=c1ccoc2ccc(OCCN3CCCCCC3)cc12 | 6.95 |
| CCN(CC)CCCCCOc1ccc2occc(=O)c2c1 | 6.66 |
| CCN(CC)CCOc1ccc2occc(=O)c2c1 | 4.92 |
| CCN(CC)CCCOc1ccc2occc(=O)c2c1 | 5.91 |
| O=c1ccoc2ccc(OCCCCN3CCCCC3)cc12 | 6.51 |
| O=c1ccoc2ccc(OCCCCCN3CCOCC3)cc12 | 7.71 |
| O=c1ccoc2ccc(OCCN3CCCCC3)cc12 | 6.08 |
| CN1CCN(CCOc2ccc3occc(=O)c3c2)CC1 | 6.22 |
| O=c1ccoc2ccc(OCCCN3CCCCC3)cc12 | 7.18 |

More lines, now with the values ahead:

| pKi | Structure (SMILES) |
| --- | --- |
| 7.06 | O=c1ccoc2ccc(OCCCCCN3CCCC3)cc12 |
| 7.08 | CN1CCN(CCCCCOc2ccc3occc(=O)c3c2)CC1 |
| 6.87 | C[C@@H]1CCCN1CCCCCOc1ccc2occc(=O)c2c1 |
| 5.54 | O=c1ccoc2ccc(OCCN3CCCC3)cc12 |
| 6.09 | CN1CCN(CCCOc2ccc3occc(=O)c3c2)CC1 |
| 6.98 | C[C@@H]1CCCN1CCCCOc1ccc2occc(=O)c2c1 |
| 7.57 | O=c1ccoc2ccc(OCCCN3CCCCCC3)cc12 |
| 6.64 | O=c1ccoc2ccc(OCCCCN3CCCC3)cc12 |
| 6.61 | O=c1ccoc2ccc(OCCCN3CCOCC3)cc12 |
| 7.62 | O=c1ccoc2ccc(OCCCCN3CCOCC3)cc12 |
| 6.30 | O=c1ccoc2ccc(OCCCN3CCCC3)cc12 |
| 6.67 | O=c1ccoc2ccc(OCCCCCN3CCCCC3)cc12 |

biological target: Acetylcholinesterase (Homo sapiens, UniProt P22303); assay: Inhibition of human AChE; settings: not given
Sequence (P22303 whole entry): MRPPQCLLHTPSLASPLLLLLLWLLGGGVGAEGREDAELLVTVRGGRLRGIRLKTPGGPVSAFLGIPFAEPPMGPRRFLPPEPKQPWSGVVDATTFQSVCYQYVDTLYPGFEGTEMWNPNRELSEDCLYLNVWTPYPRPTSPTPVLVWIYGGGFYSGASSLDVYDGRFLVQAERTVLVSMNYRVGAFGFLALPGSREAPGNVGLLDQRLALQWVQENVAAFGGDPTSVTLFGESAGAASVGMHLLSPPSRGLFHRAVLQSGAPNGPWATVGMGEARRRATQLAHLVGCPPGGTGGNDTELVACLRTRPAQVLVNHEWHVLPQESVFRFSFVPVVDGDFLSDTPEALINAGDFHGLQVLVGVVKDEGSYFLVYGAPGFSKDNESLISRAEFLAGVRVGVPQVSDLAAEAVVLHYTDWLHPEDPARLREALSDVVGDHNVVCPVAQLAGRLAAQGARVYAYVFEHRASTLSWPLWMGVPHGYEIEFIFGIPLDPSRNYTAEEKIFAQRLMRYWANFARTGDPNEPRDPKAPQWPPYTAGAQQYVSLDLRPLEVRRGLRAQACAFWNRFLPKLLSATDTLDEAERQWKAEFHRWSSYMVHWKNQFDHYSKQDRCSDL

| Structure (SMILES) | pIC50 |
| --- | --- |
| O=c1ccoc2ccc(OCCCCN3CCCCC3)cc12 | 5.25 |

biological target: T3, MAO-B (amine oxidase [flavin-containing] B) (Homo sapiens, UniProt P27338); assay: Inhibition of human MAO-B assessed as residual activity at 10 uM; settings: read-out: Activity
T3 sequence (P27338 whole entry): T2 sequence (P27338 whole entry)

| Structure (SMILES) | activity at 10 µM |
| --- | --- |
| O=c1ccoc2ccc(OCCCN3CCCCCC3)cc12 | 54% |
| O=c1ccoc2ccc(OCCCCCN3CCOCC3)cc12 | 58% |
